2 compounds from patent publication US9757464B2, “Pharmaceutical compositions of dextran polymer derivatives” (Bend Research, Inc., priority 2009, dated 2017) can be followed below.

The term Cmax denotes the peak of the concentration-time curve.

A short description of series [1]: Tg of amorphous active agent by DSC. The series is classed as physicochemical.
A short description of series [2]: Syringe dissolution test (in vitro dissolution performance). Format: physicochemical. As to conditions: pH 7.4 buffer; for Concentration: 50 μg/mL dosed. As to the method:
This solution was adjusted to pH 7.42 by adding sufficient 0.1 N HCl. […] After adding the dispersion and the buffer to the syringe, the syringe was periodically inverted to mix the components in the syringe. The syringe was fitted with a 0.45 μm Supor PES syringe filter (manufacturer, city, state). After 5 minutes, 1 mL of fluid was pushed through the filter into a 2-mL centrifuge tube. A 0.5-mL aliquot of methanol was then added to the centrifuge tube, which was then inverted to mix the contents in the tube, followed by centrifugation at 13,000 rpm for 1 minute. The supernatant was transferred to another centrifuge tube. This procedure was repeated for all timepoints. Samples were frozen in liquid nitrogen and place on a lyophilizer for 3 days to remove all liquids.

Turning to `CCC(=O)O[C@]1(C(=O)SCF)[C@H](C)C[C@H]2[C@@H]3C[C@H](F)C4=CC(=O)C=C[C@]4(C)[C@@]3(F)[C@@H](O)C[C@@]21C` [Active Agent 1, S-(fluoromethyl) 6α,9-difluoro-11β,17-dihydroxy-16α-methyl-3-oxoandrosta-1,4-diene-17β-carbothioate, 17-propionate], the “Tg of amorphous active agent” value in series [1] worked out at 84 °C.

In the case of `CCC(=O)O[C@]1(C(=O)SCF)[C@H](C)C[C@H]2[C@@H]3C[C@H](F)C4=CC(=O)C=C[C@]4(C)[C@@]3(F)[C@@H](O)C[C@@]21C` [Control 1], the Concentration in series [2] (0 min) was 0 ng/mL; in series [2] (5 min) it was 250 ng/mL; in series [2] (15 min) it was 300 ng/mL; in series [2] (30 min) it was 100 ng/mL; in series [2] (90 min), 240 ng/mL; in series [2] (180 min), 370 ng/mL. Also, the Cmax in series [2] (syringe dissolution test) was 370 ng/mL.
